{"source": "paper PMC4927141", "about": "“Structural Insights into a Novel Class of Aspartate Aminotransferase from Corynebacterium glutamicum” (PLoS ONE, 2016)", "molecules": {"B1": {"name": "Aspartate aminotransferase from Corynebacterium glutamicum ATCC13032 (enzyme, Corynebacterium glutamicum ATCC 13032)", "chain": "MSSVSLQDFDAERIGLFHEDIKRKFDELKSKNLKLDLTRGKPSSEQLDFADELLALPGKGDFKAADGTDVRNYGGLDGIVDIRQIWADLLGVPVEQVLAGDASSLNIMFDVISWSYIFGNNDSVQPWSKEETVKWICPVPGYDRHFSITERFGFEMISVPMNEDGPDMDAVEELVKNPQVKGMWVVPVFSNPTGFTVTEDVAKRLSAMETAAPDFRVVWDNAYAVHTLTDEFPEVIDIVGLGEAAGNPNRFWAFTSTSKITLAGAGVSFFLTSAENRKWYTGHAGIRGIGPNKVNQLAHARYFGDAEGVRAVMRKHAASLAPKFNKVLEILDSRLAEYGVAQWTVPAGGYFISLDVVPGTASRVAELAKEAGIALTGAGSSYPLRQDPENKNLRLAPSLPPVEELEVAMDGVATCVLLAAAEHYAN", "notes": "Aspartate aminotransferase (CgAspAT) of Corynebacterium glutamicum ATCC 13032, gene amplified from chromosomal DNA and cloned into pET30a; residues up to Asn426 are named in the structure; also called CgAspAT; AspAT; source: E. coli BL21(DE3)-T1R, purified (Ni-NTA, size-exclusion chromatography on Sephacryl S-300)"}}, "key": {"CgAspAT [1]": {"biological_target": "T1, CgAspAT (Corynebacterium glutamicum, UniProt Q8NTR2)", "T1 construct": "gene Cgl0240; pET30a, Ni-NTA purified, E. coli BL21(DE3)-T1R host; about 90 kDa homodimer; core domain Leu56-Gly304, C-terminal residue named Asn426", "assay": "malate dehydrogenase-coupled NADH oxidation, […] nm", "format": "biochemical", "details": "300 mM L-aspartate, 50 mM α-ketoglutarate, 100 mM Tris-HCl pH 8.0, 303 K, no added PLP"}, "CgAspAT [2]": {"biological_target": "T1, CgAspAT", "assay": "X-ray crystal structure, […] Å", "format": "binding", "details": "copurified, no PLP added; 28% PEG 3350, 200 mM ammonium citrate dibasic; near Lys259 (known aldimine lysine, covalent bond not stated for this structure)"}, "[3]": {"biological_target": "the molecule itself", "assay": "SEC; Sephacryl S-300 prep-grade column (320 ml), 40 mM Tris-HCl pH 8.0, 277 K; last step of the purification; dimer of the protein with itself"}}, "data": [{"molecule": "N[C@@H](CC(=O)O)C(=O)O", "note": "[L-aspartate]", "values": [{"measurement": "malate dehydrogenase-coupled NADH oxidation, 340 nm", "setting": "CgAspAT [1]", "value": "CgAspAT enzymes catalyze L-asparate and α-ketoglutarate to L-glutamate and oxaloacetate"}]}, {"molecule": "Cc1ncc(COP(=O)(O)O)c(C=O)c1O", "note": "[PLP]", "values": [{"measurement": "X-ray crystal structure, 2.0 Å", "setting": "CgAspAT [2]", "value": "we observed the electron density for the PLP cofactor in our structure without adding it"}]}, {"molecule": "O=C(O)CCC(=O)C(=O)O", "note": "[α-ketoglutarate]", "values": [{"measurement": "malate dehydrogenase-coupled NADH oxidation, 340 nm", "setting": "CgAspAT [1]", "value": "CgAspAT enzymes catalyze L-asparate and α-ketoglutarate to L-glutamate and oxaloacetate"}]}, {"molecule": "B1", "values": [{"measurement": "stoichiometry N", "setting": "[3]", "value": 2}]}]}
